Source: ChEMBL document CHEMBL1122103 (J Med Chem, 1982)

Experiments:
L1210 [1] = assay: (§1) In vitro membrane transport activity in L1210 cells in rodent; assay type: functional, Mus musculus
L1210 [2] = assay: In vitro for antitumor activity against L1210 leukemia in mice at a dose of 288 mg/Kg(sc) was reported as weight at termination of the therapy; assay type: functional, Mus musculus
L1210 [3] = assay: In vitro for antitumor activity against L1210 leukemia in mice at a dose of 288 mg/kg (s.c.) was reported as percentage increase in life span; assay type: functional; details: Mus musculus, L1210, sc
L1210 [4] = assay: In vitro inhibition of L1210 cell growth in rodent neoplastic cells; assay type: functional, cell-based; details: Mus musculus
L1210 [5] = assay: as §1; assay type: functional, cell-based; details: Mus musculus
L1210 [6] = assay: In vitro for antitumor activity against L1210 leukemia in mice at a dose of 288 mg/Kg(sc) was reported as maximum survival time; assay type: functional, Mus musculus
Mus musculus [7] = species on record: Mus musculus; assay: In vitro membrane transport activity in neoplastic epithelial cells of rodent gut; assay type: functional, cell-based; details: Epithelial cell
Mus musculus [8] = species on record: Mus musculus; assay: In vitro membrane transport activity in S180 ascites tumor in rodent; assay type: functional
Ehrlich = assay: In vitro membrane transport activity in Ehrlich cells in rodent; assay type: functional, cell-based; details: Mus musculus
Dihydrofolate reductase [9] = biological target: T1, Dihydrofolate reductase (Mus musculus, UniProt P00375); assay: In vitro inhibitory activity against L1210 dihydrofolate reductase in rodent neoplastic cells
T1 sequence (P00375 whole entry): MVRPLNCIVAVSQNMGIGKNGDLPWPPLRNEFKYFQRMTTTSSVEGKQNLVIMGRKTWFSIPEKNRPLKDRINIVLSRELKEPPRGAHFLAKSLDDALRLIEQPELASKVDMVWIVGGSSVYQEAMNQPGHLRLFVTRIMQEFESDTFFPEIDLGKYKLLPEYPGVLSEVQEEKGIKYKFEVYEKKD

L1210 [10] = assay: In vitro for antitumor activity against L1210 leukemia in mice at a dose of 15 mg/Kg(sc) was reported as weight at termination of the therapy; assay type: functional, Mus musculus
L1210 [11] = assay: In vitro for antitumor activity against L1210 leukemia in mice at a dose of 15 mg/Kg(sc) was reported as maximum survival time; assay type: functional, Mus musculus
L1210 [12] = assay: In vitro for antitumor activity against L1210 leukemia in mice at a dose of 15 mg/Kg(sc) was reported as percentage increase in life span; assay type: functional; details: Mus musculus
Lacticaseibacillus casei [13] = assay: In vitro antibacterial activity against MTX-resistance Lactobacillus casei; assay type: functional, organism-based
[14] = In vitro for antitumor activity against S180 Ascites tumor in mice at a dose of 6 mg/Kg (sc) was reported as percentage increase in life span; assay type: functional; details: Mus musculus, S-180, sc
[15] = In vitro antitumor activity against S180 Ascites tumor in mice at a dose of 15 mg/Kg (sc) was reported as maximum survival time; assay type: functional, Mus musculus
[16] = In vitro antitumor activity against S180 Ascites tumor in mice at a dose of 6 mg/Kg (sc) was reported as maximum survival time; assay type: functional, Mus musculus
[17] = In vitro for antitumor activity against S180 Ascites tumor in mice at a dose of 15 mg/Kg (sc) was reported as weight at termination of the therapy; assay type: functional, Mus musculus
[18] = In vitro for antitumor activity against S180 Ascites tumor in mice at a dose of 6 mg/Kg (sc) was reported as weight at termination of the therapy; assay type: functional, Mus musculus
[19] = In vitro for antitumor activity against S180 Ascites tumor in mice at a dose of 15 mg/Kg (sc) was reported as percentage increase in life span; assay type: functional; details: Mus musculus, S-180, sc
Enterococcus faecium [20] = assay: In vitro antibacterial activity against MTX-resistant Streptococcus faecium; assay type: functional, organism-based
Enterococcus faecium [21] = assay: In vitro antibacterial activity against Streptococcus faecium (ATCC 8043); assay type: functional, organism-based
Lacticaseibacillus casei [22] = assay: In vitro antibacterial activity against Lactobacillus casei (ATCC 7469); assay type: functional, organism-based
Dihydrofolate reductase [23] = biological target: Dihydrofolate reductase (Lactobacillus casei, UniProt P00381); assay: In vitro inhibition of Dihydrofolate reductase activity against Lactobacillus casei enzyme; assay type: functional, Lacticaseibacillus casei
Sequence of Dihydrofolate reductase (Lactobacillus casei, UniProt P00381) (P00381 whole entry): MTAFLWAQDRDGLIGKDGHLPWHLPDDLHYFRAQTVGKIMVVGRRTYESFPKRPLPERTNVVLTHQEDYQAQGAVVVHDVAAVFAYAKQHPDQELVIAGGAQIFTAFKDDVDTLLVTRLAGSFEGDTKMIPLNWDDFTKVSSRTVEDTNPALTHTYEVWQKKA

L1210 [24] = assay: In vitro for antitumor activity against L1210 leukemia in mice at a dose of 288 mg/Kg(sc) was reported as percentage increase in life span; assay type: functional; details: Mus musculus
[25] = In vitro for antitumor activity against S180 Ascites tumor in mice at a dose of 288 mg/Kg (sc) was reported as percentage increase in life span; assay type: functional; details: Mus musculus, S-180, sc
[26] = In vitro for antitumor activity against S180 Ascites tumor in mice at a dose of 36 mg/Kg (sc) was reported as percentage increase in life span; assay type: functional; details: Mus musculus, S-180, sc
[27] = In vitro antitumor activity against S180 Ascites tumor in mice at a dose of 288 mg/Kg (sc) was reported as maximum survival time; assay type: functional, Mus musculus
[28] = In vitro for antitumor activity against S180 Ascites tumor in mice at a dose of 288 mg/Kg (sc) was reported as weight at termination of the therapy; assay type: functional, Mus musculus
[29] = In vitro for antitumor activity against S180 Ascites tumor in mice at a dose of 36 mg/Kg (sc) was reported as weight at termination of the therapy; assay type: functional, Mus musculus
Thymidylate synthase = biological target: T2, Thymidylate synthase (Lactobacillus casei, UniProt P00469); assay: In vitro inhibition of activity against Lactobacillus casei enzyme thymidylate synthase; assay type: functional, Lacticaseibacillus casei
T2 sequence (P00469 whole entry): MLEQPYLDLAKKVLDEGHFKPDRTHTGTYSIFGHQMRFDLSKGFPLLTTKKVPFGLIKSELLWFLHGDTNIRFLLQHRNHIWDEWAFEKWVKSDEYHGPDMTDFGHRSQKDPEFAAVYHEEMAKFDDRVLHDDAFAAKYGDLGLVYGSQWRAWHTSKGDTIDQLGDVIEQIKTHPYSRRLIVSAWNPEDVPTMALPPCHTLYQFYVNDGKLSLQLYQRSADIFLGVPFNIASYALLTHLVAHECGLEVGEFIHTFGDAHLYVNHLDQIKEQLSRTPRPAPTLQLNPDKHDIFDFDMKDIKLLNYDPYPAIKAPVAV

[30] = In vitro antitumor activity against S180 Ascites tumor in mice at a dose of 36 mg/Kg (sc) was reported as maximum survival time; assay type: functional, Mus musculus
L1210 [31] = assay: In vitro for antitumor activity against L1210 leukemia in mice at a dose of 144 mg/Kg(sc) was reported as maximum survival time; assay type: functional, Mus musculus
L1210 [32] = assay: In vitro for antitumor activity against L1210 leukemia in mice at a dose of 144 mg/Kg(sc) was reported as percentage increase in life span; assay type: functional; details: Mus musculus
L1210 [33] = assay: In vitro for antitumor activity against L1210 leukemia in mice at a dose of 144 mg/Kg(sc) was reported as weight at termination of the therapy; assay type: functional, Mus musculus

SMILES | k (L1210 [1]) [min⁻¹] | Weight at term (L1210 [2]) [g] | IC50 (L1210 [4]) [µM] | Km (L1210 [5]) [µM] | MST (L1210 [6]) [days] | Km (Mus musculus [7]) [µM] | Km (Mus musculus [8]) [µM] | Km (Ehrlich) [µM] | Ki (Dihydrofolate reductase [9]) [nM] | IC50 (Lacticaseibacillus casei [13]) [µM] | IC50 (Enterococcus faecium [20]) [µM] | IC50 (Enterococcus faecium [21]) [µM] | IC50 (Lacticaseibacillus casei [22]) [µM] | IC50 (Dihydrofolate reductase [23]) [µM] | IC50 (Thymidylate synthase) [µM] | other results
CCCN(Cc1cnc2nc(N)nc(N)c2n1)c1ccc(C(=O)NC(CCC(=O)O)C(=O)O)cc1 (stereo unspecified) | 0.26 | 21.3 | 0.0022 | 3.2 | 15.8 | 422 | 3.5 | 4.2 | 0.003 |  |  |  |  |  |  | ILS at 288 mg/kg (L1210 [3]): 133%
CN(Cc1cnc2nc(N)nc(N)c2n1)c1ccc(C(=O)N[C@@H](CCC(=O)O)C(=O)O)cc1 [METHOTREXATE] | 0.23 |  |  | 3.7 |  | 339 | 11.4 | 10.1 |  | > 10000 | 7200 | 0.09 | 0.013 |  |  | Weight at term (L1210 [10]): 19.8 g; MST (L1210 [11]): 17.1 days; ILS at 15 mg/kg (L1210 [12]): 152%; ILS at 6 mg/kg [14]: 78%; MST [15]: 21.4 days; MST [16]: 17.8 days; Weight at term [17]: 24.4 g; Weight at term [18]: 24.1 g; ILS at 15 mg/kg [19]: 82%
C#CCN(Cc1cnc2nc(N)nc(N)c2n1)c1ccc(C(=O)NC(CCC(=O)O)C(=O)O)cc1 (stereo unspecified) | 0.26 | 22.3 | 0.0014 | 3.2 | 16.6 | 385 | 2.1 | 2.4 | 0.5 | > 10000 | > 10000 | 0.21 | 0.014 | 0.01 | 20 | ILS at 288 mg/kg (L1210 [24]): 143%; ILS at 288 mg/kg [25]: 67%; ILS at 36 mg/kg [26]: 129%; MST [27]: 19.8 days; Weight at term [28]: 22.4 g; Weight at term [29]: 23.9 g; MST [30]: 22.9 days
CCCCCCCCN(Cc1cnc2nc(N)nc(N)c2n1)c1ccc(C(=O)NC(CCC(=O)O)C(=O)O)cc1 (stereo unspecified) | 0.89 |  | 0.217 | 5.6 |  | 1290 | 1.8 | 1.3 | 17.5 | > 10000 | 670 | 0.41 | 0.017 | 0.012 | > 80 | MST (L1210 [31]): 8.1 days; ILS at 144 mg/kg (L1210 [32]): 16%; Weight at term (L1210 [33]): 22.7 g
Nc1nc(N)c2nc(CNc3ccc(C(=O)N[C@@H](CCC(=O)O)C(=O)O)cc3)cnc2n1 [AMINOPTERIN] | 0.21 |  | 0.0012 | 1.3 |  |  |  | 2.1 | 0.004 |  |  |  |  |  |  | 
